What was measured:
[1] = tested on: Kelly, NGP and SIMA NB cells; assay: Cell Titer-Glo cell viability / growth assay; assay type: cell-based, human; settings: 6 days, compared with (S,S) stereoisomer and A485
Description: Cells were infected with lentiviruses encoding sgRNAs or treated with compounds as described. Colony assays were performed by replating cells at 500 cells per well in 6-well dishes and grown in regular growth media for 10 d before 100% methanol fixation, 0.05% crystal violet staining, and quantitation. Experiments were completed in triplicate; data shown are the average of three independent experiments. Cell Titer-Glo® assay was performed as per the manufacturer's instructions (Promega®). Briefly, 1000 cells/well were plated into 96-well plates and treated with a range of compound dosing. Cell viability was measured at the noted time points based on luminescence by the Cell Titer-Glo® assay (Promega®) and read on an Envision 2104 (PerkinElmer®, USA) according to the manufacturer's protocol.

[2] = tested on: pro- and anti-apoptotic mRNA transcripts; assay: ERCC spike-in RNA-seq of treated Kelly cells; assay type: cell-based, human; settings: 500 nM, 24 h
Description: For in vitro analyses, total RNA was extracted from control […] or JQAD1 treated Kelly cells using TRIzolTM reagent (Ambion). Prior to extraction, exogenous spike-in of synthetic External RNA Control Consortium (ERCC) RNA controls were added based on cell number (Ambion). Samples were treated with RNAse-free DNAse I and spin purified using the Qiagen® RNeasy Kit (Qiagen®). Purified RNA samples were subjected to library construction with poly-adenylation preparation and sequencing using the Illumina NextSeq® 500 (paired end, 75bp reads). RNA-seq reads were aligned to a reference index containing the sequences of the hg19 revision of the human reference genome and the ERCC spike-in probes using hisat 2.1.0. Expression was quantified using sorted BAMs, a gene reference built using ERCC sizes and RefSeq genes downloaded Jul. 15, 2017, and htseq-count with parameters -I gene_id- stranded=reverse -f bam -m intersection-strict. Read counts were converted to transcripts per million (TPM) and used for cell number-normalization. The expression of all RefSeq genes and ERCC probes was floored at 0.01 and a pseudocount of 0.1 was added to all entries. Values were normalized by equilibrating the expression of the ERCC probes among experiments using normalize.loess from the affy R package. The ERCC-normalized expression of each gene after 24 h of either […] or JQAD1 treatment was compared against its expression in dimethyl sulfoxide (DMSO) treated samples to create two-fold changes.

EP300 [3] = biological target: T1, EP300 (Mus musculus, UniProt B2RWS6); assay: Immunohistochemistry of EP300 in liver of Crbn ILE391VAL knockin mice; assay type: in vivo; settings: 40 mg/Kg IP daily, 14 days
T1 construct: from tissue; host or cells: liver of Balb/c Crbn^ILE391VAL knock-in mice
T1 sequence (B2RWS6 whole entry): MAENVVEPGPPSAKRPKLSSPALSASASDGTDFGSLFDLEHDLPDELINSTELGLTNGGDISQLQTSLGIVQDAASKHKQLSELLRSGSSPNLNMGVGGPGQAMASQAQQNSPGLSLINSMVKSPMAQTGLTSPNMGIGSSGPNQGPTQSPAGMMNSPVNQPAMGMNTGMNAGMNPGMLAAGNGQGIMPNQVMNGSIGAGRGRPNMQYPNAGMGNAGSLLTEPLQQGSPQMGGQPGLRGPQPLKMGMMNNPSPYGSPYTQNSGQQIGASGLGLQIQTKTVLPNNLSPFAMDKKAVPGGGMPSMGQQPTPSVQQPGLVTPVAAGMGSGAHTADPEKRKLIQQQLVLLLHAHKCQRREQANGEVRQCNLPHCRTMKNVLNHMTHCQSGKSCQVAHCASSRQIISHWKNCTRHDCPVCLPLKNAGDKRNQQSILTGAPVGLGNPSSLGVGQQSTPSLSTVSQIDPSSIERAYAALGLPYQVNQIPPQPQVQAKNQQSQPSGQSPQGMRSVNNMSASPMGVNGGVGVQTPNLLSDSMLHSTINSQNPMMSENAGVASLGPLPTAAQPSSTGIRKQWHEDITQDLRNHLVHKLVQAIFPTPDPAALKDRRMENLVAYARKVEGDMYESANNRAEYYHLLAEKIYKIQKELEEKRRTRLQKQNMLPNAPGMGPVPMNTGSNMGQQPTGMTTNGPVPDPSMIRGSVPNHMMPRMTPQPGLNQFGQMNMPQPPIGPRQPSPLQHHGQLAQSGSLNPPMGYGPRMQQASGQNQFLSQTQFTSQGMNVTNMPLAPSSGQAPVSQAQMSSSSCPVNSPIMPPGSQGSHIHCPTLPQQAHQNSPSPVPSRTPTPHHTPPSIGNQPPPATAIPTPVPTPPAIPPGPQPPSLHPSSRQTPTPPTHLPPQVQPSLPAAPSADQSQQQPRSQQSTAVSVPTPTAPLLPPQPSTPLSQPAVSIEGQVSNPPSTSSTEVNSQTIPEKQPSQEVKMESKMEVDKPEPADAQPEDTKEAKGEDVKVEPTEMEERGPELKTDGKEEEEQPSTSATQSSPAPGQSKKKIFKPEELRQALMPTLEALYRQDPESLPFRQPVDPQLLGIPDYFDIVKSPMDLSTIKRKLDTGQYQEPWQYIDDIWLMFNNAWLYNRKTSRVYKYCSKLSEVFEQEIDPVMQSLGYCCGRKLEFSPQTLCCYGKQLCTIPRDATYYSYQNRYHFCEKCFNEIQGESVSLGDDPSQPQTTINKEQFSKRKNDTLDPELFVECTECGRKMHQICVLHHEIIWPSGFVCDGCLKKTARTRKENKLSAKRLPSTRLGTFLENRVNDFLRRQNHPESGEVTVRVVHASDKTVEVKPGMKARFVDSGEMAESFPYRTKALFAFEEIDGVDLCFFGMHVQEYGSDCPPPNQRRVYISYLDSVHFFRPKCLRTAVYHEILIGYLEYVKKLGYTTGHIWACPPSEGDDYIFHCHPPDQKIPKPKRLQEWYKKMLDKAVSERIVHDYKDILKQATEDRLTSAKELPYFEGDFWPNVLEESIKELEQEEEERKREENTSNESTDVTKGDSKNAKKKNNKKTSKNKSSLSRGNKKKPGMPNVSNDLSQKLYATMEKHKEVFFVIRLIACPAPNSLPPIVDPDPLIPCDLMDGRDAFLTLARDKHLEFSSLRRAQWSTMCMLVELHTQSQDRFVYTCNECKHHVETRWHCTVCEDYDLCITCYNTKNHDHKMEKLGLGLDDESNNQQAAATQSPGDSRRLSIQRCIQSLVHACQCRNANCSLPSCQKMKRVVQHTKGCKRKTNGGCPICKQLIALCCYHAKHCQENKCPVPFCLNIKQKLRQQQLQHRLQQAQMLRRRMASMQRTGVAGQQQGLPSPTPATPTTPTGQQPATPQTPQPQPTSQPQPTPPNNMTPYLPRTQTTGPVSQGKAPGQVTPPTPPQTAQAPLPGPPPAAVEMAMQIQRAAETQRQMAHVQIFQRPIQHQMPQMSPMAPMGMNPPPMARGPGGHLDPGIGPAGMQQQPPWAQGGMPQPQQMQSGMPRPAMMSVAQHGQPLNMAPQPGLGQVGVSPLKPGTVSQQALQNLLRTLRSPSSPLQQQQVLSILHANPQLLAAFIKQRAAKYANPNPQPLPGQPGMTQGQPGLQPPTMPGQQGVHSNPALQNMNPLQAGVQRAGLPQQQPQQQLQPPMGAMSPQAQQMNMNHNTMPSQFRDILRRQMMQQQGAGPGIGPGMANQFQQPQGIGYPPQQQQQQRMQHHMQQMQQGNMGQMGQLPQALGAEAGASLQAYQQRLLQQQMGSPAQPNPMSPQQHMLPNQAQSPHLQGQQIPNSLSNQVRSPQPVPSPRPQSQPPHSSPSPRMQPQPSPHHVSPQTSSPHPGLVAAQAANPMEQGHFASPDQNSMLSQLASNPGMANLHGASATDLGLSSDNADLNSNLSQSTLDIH
Description: For toxicity studies, four female CD1 mice (Charles River Laboratories) were injected intraperitoneally (IP) with single doses of 10 mg/Kg (R,S)-JQAD1 solubilized in 10% hydroxypropyl β-cyclodextrin (Sigma-Aldrich®) in sterile water. Following injection, blood concentration of (R,S)-JQAD1 was measured by serial measurements of animal serum at time points out to 24 h, by liquid chromatography with tandem mass spectrometry (LC-MS/MS) analysis. Pharmacokinetics were performed at ChemPartner in Shanghai, China, using LC-MS/MS method and pharmacokinetics parameters (Tmax, Cmax, T1/2, AUC, etc.) calculated with WinNonlin® V 6.2 statistics software (Pharsight Corporation) using a noncompartmental model. For maximally tolerated dose (MTD) testing, six female CD1 mice were treated with daily IP doses of (R,S)-JQAD1 at 10, 20, or 40 mg/kg. Animals were monitored for animal weight, grooming and behavior daily without noted effects. […] Animal weights, behavior and grooming were monitored daily, for a total of 21 days. […] Blood samples were obtained by retro-orbital puncture and blood analyzed at the Small Animal Imaging Facility at Beth Israel Deaconess Medical Center (Boston, MA), on a Hemavet® 9500FS (Drew Scientific) for blood counts, creatinine, AST, ALT, ALP, GGTP, and BUN measurements. […]

557 cancer cell lines = assay: PRISM pooled barcoded 5-day cell viability screen; assay type: cell-based, human
Description: PRISM barcoded pooled screening was performed using JQAD1 in 578 barcoded cell lines as described in Corsello et al. Nat. Med. 23:405-8 (2017) and Corsello et al. Nat Cancer 1:235-48 (2020). Some cell lines included in the screen were genetically engineered to express exogenous genes, and these cell lines were removed to yield 557 cell lines. Briefly, cells in pools of 20-25 were thawed and plated into 384-well plates (1250 cells/well for adherent cell pools, 2000 cells/well for suspension or mixed suspension/adherent cell pools) containing compound (top concentration: 10 μM, 8-point, threefold dilution). All conditions were tested in triplicate. Cells were lysed after 5 days of treatment and mRNA-based Luminex® detection of barcode abundance from lysates was carried out as described in Corsello et al. Cancer 1:235-48 (2020). Luminex median fluorescence intensity (MFI) data was input to a standardized R pipeline to generate viability estimates relative to vehicle treatment for each cell line and treatment condition, and to fit dose-response curves from viability data.

CBP = biological target: T2, CBP (Homo sapiens, UniProt Q92793); assay: Immunohistochemistry of CBP in Kelly cell xenografts; assay type: in vivo; settings: 40 mg/Kg once daily
T2 construct: Cells growing in culture were lysed for whole cell lysates; endogenous in cells; host or cells: Kelly, NGP, SIMA, BE2C neuroblastoma cells; Kelly xenografts in NSG mice
T2 sequence (Q92793 whole entry): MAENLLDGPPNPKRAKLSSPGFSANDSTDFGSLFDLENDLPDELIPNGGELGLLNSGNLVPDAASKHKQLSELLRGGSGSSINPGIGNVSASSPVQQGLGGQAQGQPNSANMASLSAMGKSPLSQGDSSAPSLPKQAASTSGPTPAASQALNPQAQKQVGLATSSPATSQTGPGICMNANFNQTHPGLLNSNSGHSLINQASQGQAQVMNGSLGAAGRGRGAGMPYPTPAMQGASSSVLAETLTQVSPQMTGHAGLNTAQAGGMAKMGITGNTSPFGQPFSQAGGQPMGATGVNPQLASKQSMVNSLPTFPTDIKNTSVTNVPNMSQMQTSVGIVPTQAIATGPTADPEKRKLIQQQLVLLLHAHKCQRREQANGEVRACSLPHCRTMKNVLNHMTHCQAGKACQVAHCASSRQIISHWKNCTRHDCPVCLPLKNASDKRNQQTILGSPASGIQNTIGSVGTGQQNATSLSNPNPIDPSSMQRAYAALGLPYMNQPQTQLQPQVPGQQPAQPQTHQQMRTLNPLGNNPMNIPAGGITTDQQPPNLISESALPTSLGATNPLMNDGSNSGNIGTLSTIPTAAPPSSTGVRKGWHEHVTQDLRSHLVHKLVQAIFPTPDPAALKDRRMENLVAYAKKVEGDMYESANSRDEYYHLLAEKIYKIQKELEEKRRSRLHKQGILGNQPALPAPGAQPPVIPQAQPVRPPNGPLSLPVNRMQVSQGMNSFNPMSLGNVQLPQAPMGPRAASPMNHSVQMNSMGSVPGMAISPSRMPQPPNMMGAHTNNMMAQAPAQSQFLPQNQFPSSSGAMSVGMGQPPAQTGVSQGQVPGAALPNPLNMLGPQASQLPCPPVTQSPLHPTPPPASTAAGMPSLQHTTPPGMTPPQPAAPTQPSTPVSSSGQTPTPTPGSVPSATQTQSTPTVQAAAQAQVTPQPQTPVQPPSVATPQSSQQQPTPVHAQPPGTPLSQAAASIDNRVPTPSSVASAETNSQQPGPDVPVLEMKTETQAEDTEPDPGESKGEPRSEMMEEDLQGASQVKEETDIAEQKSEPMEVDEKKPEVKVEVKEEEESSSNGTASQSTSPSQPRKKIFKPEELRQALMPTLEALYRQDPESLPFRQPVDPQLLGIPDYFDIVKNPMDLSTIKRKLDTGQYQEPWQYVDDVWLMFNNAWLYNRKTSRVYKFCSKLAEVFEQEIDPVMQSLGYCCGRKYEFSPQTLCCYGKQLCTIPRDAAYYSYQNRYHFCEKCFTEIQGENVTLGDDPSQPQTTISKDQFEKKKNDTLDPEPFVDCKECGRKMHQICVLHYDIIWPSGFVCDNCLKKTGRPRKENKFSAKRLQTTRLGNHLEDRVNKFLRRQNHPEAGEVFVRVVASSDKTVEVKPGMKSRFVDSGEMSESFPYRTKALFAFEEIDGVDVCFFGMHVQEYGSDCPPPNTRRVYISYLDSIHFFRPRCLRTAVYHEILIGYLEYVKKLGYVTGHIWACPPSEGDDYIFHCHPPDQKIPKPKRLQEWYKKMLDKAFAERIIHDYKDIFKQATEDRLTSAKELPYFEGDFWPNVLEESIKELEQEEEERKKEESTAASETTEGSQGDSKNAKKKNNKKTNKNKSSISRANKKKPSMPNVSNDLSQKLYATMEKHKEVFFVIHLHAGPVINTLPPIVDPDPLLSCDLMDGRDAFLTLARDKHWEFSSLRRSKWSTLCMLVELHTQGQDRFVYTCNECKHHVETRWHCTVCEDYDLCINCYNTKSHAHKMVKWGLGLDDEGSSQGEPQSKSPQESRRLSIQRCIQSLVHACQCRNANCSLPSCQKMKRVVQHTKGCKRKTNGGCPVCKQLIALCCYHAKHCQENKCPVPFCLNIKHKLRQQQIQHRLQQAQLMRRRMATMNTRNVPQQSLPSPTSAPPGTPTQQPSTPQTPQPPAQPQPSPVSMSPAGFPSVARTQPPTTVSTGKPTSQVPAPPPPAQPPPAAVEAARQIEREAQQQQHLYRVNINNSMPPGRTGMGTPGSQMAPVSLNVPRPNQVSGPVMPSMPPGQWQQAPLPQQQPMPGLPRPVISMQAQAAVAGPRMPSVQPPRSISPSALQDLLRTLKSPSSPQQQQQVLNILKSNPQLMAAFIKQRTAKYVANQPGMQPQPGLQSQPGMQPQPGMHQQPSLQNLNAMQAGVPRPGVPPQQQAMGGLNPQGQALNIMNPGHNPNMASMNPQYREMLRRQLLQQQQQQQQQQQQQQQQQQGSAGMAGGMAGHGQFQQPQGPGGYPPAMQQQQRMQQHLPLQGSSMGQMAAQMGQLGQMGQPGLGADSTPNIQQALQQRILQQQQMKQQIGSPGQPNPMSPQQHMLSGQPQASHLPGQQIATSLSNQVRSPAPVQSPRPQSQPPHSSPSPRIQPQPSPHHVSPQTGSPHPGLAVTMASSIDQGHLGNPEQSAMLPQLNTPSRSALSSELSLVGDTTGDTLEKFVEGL
Description: (§1) Separately, eight animals were xenografted as described above, and treated with vehicle (n=4) or JQAD1 (n=4) at 40 mg/kg IP daily for 14 days. These animals were sacrificed at day 14, following which tumor was extracted, and divided for immunohistochemical analysis or analysis of RNA expression by RNA sequencing (RNA-seq). Immunohistochemistry was performed on the Leica® Bond™ III automated staining platform. Antibody EP300 from Cell Signaling Technology®, catalog number 86377, clone D8Z4E, was run at 1:50 dilution using the Leica® Biosystems Refine Detection Kit with citrate antigen retrieval. Antibody KAT3A/CBP (catalog number ab2832, polyclonal, Abcam) was run at 1:200 using the Leica® Biosystems Refine Detection Kit with ethylenediaminetetraacetic acid (EDTA) antigen retrieval.

EP300 [4] = biological target: T3, EP300 (Homo sapiens, UniProt Q09472); assay: Immunohistochemistry of EP300 in Kelly cell xenografts; assay type: in vivo; settings: 40 mg/Kg once daily
T3 construct: Cells growing in culture were lysed for whole cell lysates; endogenous in cells; host or cells: Kelly, NGP, SIMA, BE2C neuroblastoma cells; Kelly xenografts in NSG mice
Description: as §1

Compound: C[C@H](N(Cc1ccc(F)cc1)C(=O)CN1C(=O)O[C@@]2(CCc3cc(NC(=O)CCCCCCCCCCCNc4ccc5c(c4)C(=O)N(C4CCC(=O)NC4=O)C5=O)ccc32)C1=O)C(F)(F)F (stereo partly drawn) [JQAD1, 12-((2-(2,6-dioxopiperidin-3-yl)-1,3-dioxoisoindolin-5-yl)amino)-N-((R)-3′-(2-((4-fluorobenzyl)((S)-1,1,1-trifluoropropan-2-yl)amino)-2-oxoethyl)-2′,4′-dioxo-2,3-dihydrospiro[indene-1,5′-oxazolidin]-5-yl)dodecanamide]
- IC50 in intact NB cells (comparison) [1]: lowest IC50 concentration
- transcript levels of BIM, BID, PUMA, BAX, BCL2 and MCL1 [2]: upregulation
- gene set enrichment analysis, hallmark gene sets ([2]; JQAD1 versus A485): enrichment of the apoptosis hallmark gene set
- EP300 protein expression in liver (EP300 [3]): reduced EP300 protein expression levels in the liver cell nuclei
- antineoplastic activity (557 cancer cell lines; 5 days, 557 cancer cell lines): antineoplastic activity across multiple tumor lineages
- area under the curve (AUC) of the dose-response in growth-inhibited cell lines (557 cancer cell lines; 5 days, top concentration 10 μM, some example cell lines within the majority of tumor lineages): < 0.85
- relation of CRBN expression to AUC of the dose-response (557 cancer cell lines; CRBN expression from CCLE): higher expression levels of CRBN were correlated with higher JQAD1-mediated antineoplastic activity
- CBP immunostaining of tumors (CBP): CBP immunostaining was retained
- EP300 immunostaining of tumors (EP300 [4]): loss of EP300 immunostaining compared with vehicle control tumors
